From patent US11103525B2, “Idoxuridine and its analogs as neuroprotectans for the treatment of parkinsonism” (priority 2017, dated 2021)

How the values were obtained:
primary cortical neurons = assay: Cytoprotection against NMDA excitotoxicity (propidium iodide staining); assay type: cell-based, rat; conditions: 25 μM pretreatment 72 h or 48 h, NMDA 200 μM 30 min
Description: FIG. 7: Cytoprotection of Idoxuridine against excitotoxicity of NMDA. Mature primary neurons were pretreated with Idoxuridine (25 μM) or DMSO (ctrl cells) for 72 h or 48 h and subsequently exposed to NMDA (200 μM) for 30 min. Cell viability was assessed by propidium iodide (PI) staining. Both control and treated cells were incubated for 30 min with 6 μM PI which stains nuclei of dead cells. After extensive washing with Tyrode's buffer, samples were fixed and stained with DAPI to visualize all cell nuclei. PI positive cells were counted at several regions on coverslips and expressed as percentage of total cells visualized with DAPI stain. […] Data are expressed as means+/−SD and analyzed by one-way ANOVA with Dunnett's posthoc test. *p<0.001
Primary cortical neurons: Primary cortical neurons were prepared from E18 rat embryos. Cortices were isolated, cleared from meninges and dissociated after incubation in HBSS (Ca^2+ and Mg^2+-free) with 0.25% trypsin for 20 min at 37° C. […]
Mature primary neurons were pretreated with Idoxuridine (25 μM) or DMSO (ctrl cells) for 72 h or 48 h and subsequently exposed to NMDA (200 μM) for 30 min. Cell viability was assessed by propidium iodide (PI) staining. […] PI positive cells were counted at several regions on coverslips and expressed as percentage of total cells visualized with DAPI stain. […]

WT cells [1] = assay: Cytoprotection against H2O2, WT cells; assay type: cell-based, mouse; conditions: in-well H2O2 0.00025%
Description: FIG. 10: Cytoprotection of Idoxuridine against […]. H2O2 reduces cell viability by increasing oxidative stress. This effect was counteracted by idoxuridine in GPR37-tGFP overexpressing cells (A) and WT (B) cells. […] In-well H2O2 concentration used was 0.00025%. […]

N2a-WT cells = assay: Cytoprotection against 6-OHDA (MTT assay), N2a-WT cells; assay type: cell-based, mouse; conditions: 2 μM pretreatment 72 h, then 6-OHDA 24 h
Description: (§1) FIG. 6. GPR37-associated cytoprotection of Idoxuridine against parkinsonian drug 6-OHDA. N2a-WT and N2a-GPR37-tGFP cells were grown in differentiating medium containing either 2 μM idoxuridine, 0.1% DMSO (negative control) or 1 mM dbcAMP (positive control). 72 h later cells were treated with either 6-OHDA (10, 20, 35 100 μM) or vehicle control and incubated for 24 h. Cell viability was quantified by MTT assay. Data are pooled from three independent experiments with 6 technical replicates for each condition and are expressed as means+/−SD. To assess the […] effect of idoxuridine against 6-OHDA-toxicity data were analyzed using a 2-way ANOVA followed by a Bonferroni correction test. Each cell line was statistically analyzed separately, with pretreatment and 6-OHDA treatment as variables; or GPR37 expression and 6-OHDA-treatment as variables. For simplicity, only idoxuridine related significance is indicated; significances between positive and negative controls are not shown; ****p<0.0001, ***p<0.001, **p<0.01. Test compound (5 μL) of desired concentration (Idoxuridine, final concentration 2 μM); positive control (dibutyryl-cAMP, final concentration 1 mM); and negative control (DMSO, final concentration 0.1%) were plated in a 96-well plate. […] Absorbance was measured at 570 nm (formazan product) and at 650 nm (reference) using a Tecan Spark® 10M microplate reader. […]

wildtype cells = assay: Cytoprotection against MG132, wildtype cells; assay type: cell-based, mouse
Description: (§2) FIG. 8: Cytoprotection of Idoxuridine against MG132. MG132-induced proteasomal inhibition reduced cell viability. […] Data represented as mean+SD. Analysis performed via one-way ANOVA with Neuman-Keuls post-test for both Figures. *** indicates p<0.001. 2 mM 4-PBA used as a positive unspecific control. MG132 is a potent 26S proteasome inhibitor which increases protein accumulation, ROS leakage, induces cell cycle arrest and apoptosis.

[2] = test system: GPR37-tGFP overexpressing cells; assay: Cytoprotection against MG132, GPR37-tGFP overexpressing cells; assay type: cell-based, mouse
Description: as §2

WT cells [3] = assay: Cytoprotection against Eeyarestatin (EeI), WT cells; assay type: cell-based, mouse
Description: FIG. 9: Cytoprotection of Idoxuridine against Eel. Eeyarestatin (Eel) is a potent inhibitor of endoplasmic reticulum associated protein degradation (ERAD) pathway, specifically targeting p97. Eel-mediated reduction of cell viability is counteracted by idoxuridine in both GPR37-tGFP overexpressing cells (A) and WT (B) cells. Data represented as mean+SD. Analysis performed via one-way ANOVA with Neuman-Keuls post-test for both Figures. *** indicates p<0.001.
Eeyarestatin (EeI) is a potent inhibitor of endoplasmic reticulum associated protein degradation (ERAD) pathway, specifically targeting p97.

N2a-GPR37-tGFP cells = assay: Cytoprotection against 6-OHDA (MTT assay), N2a-GPR37-tGFP cells; assay type: cell-based, mouse; conditions: 2 μM pretreatment 72 h, then 6-OHDA 24 h; compared with N2a-WT cells
Description: as §1

Compound: O=c1[nH]c(=O)n([C@H]2C[C@H](O)[C@@H](CO)O2)cc1I [Idoxuridine, 2′-deoxy-5-iodouridine]
- effect on excitotoxicity induced by NMDA (PI positive cells) (primary cortical neurons): significantly counteracted
- effect on H2O2-induced reduction of cell viability (WT cells [1]): counteracted
- cytoprotective effect against 6-OHDA (cell viability, MTT) (N2a-WT cells): protective
- effect on MG132-induced reduction of cell viability (wildtype cells): some neuroprotection
- effect on MG132-induced reduction of cell viability [2]: potently counteracted
- effect on EeI-mediated reduction of cell viability (WT cells [3]): counteracted
- cytoprotective effect against 6-OHDA (cell viability, MTT) (N2a-GPR37-tGFP cells): significantly higher effect
